Legend:
[1] = Physical properties of anhydrate and hydrate (Table 1); type: physicochemical
Protocol: 2-Chloro-N-(4′-chlorobiphenyl-2-yl)nicotinamide was obtained at the end of the synthesis as hot xylenic solution. Upon cooling slowly, virtually all of the active ingredient crystallized from xylene. After filtration, residual xylene was removed by drying in a vacuum drying oven, whereby the active ingredient was obtained in the form of the anhydrate. The physical properties are compiled in Table 1.
1 g of 2-chloro-N-(4′-chlorobiphenyl-2-yl)nicotinamide anhydrate was dissolved in 20 ml of THF at 40° C. and the solution was then poured into 20 ml of water. The material which had precipitated was filtered off with suction and dried at 40° C. in a drying oven.
The physical properties of the 2-chloro-N-(4′-chlorobiphenyl-2-yl)nicotinamide monohydrate thus repared are shown in Tabelle 1.

[2] = Particle size of the formulation on storage (Malvern Mastersizer); type: physicochemical; details: After eight milling passes, Dyno KDL mill
Protocol: 500 g of 2-chloro-N-(4′-chlorobiphenyl-2-yl)nicotinamide monohydrate were combined as described under A with adjuvants. After the mixture had been stirred briefly, it was pumped through a Dyno KDL mill (1.2 mm beads, milling space 1.2 l) at a rate of 2 l/h. The milling process was carried out without problems. No clogging of the mill or crystallization in the receiver was observed. After eight milling passes, a sufficiently fine particle size of 70% <2 μm (Malvern Mastersizer) was achieved, i.e. the particle diameter of 70% of the particles is <2 μm.
The data shown are the percentage of the particles which are smaller than 2 μm.

Structure (SMILES)	Water content [1] [%]	particle size, share of particles <2 μm [2] [% <2 μm]
O.O=C(Nc1ccccc1-c1ccc(Cl)cc1)c1cccnc1Cl [Hydrate, 2-chloro-N-(4′-chlorobiphenyl-2-yl)nicotinamide monohydrate]	5	70
O=C(Nc1ccccc1-c1ccc(Cl)cc1)c1cccnc1Cl [Anhydrate, 2-chloro-N-(4′-chlorobiphenyl-2-yl)nicotinamide]	<1	

Source: patent US20040249164A1, “Crystalline hydrates of nicotinic acid anilide and benzoyl anilide derivatives” (priority 2001, published 2004)
